# From patent US20030050283A1, “Composition for the treatment and/or prevention of macular degeneration, method for its manufacture, and its use for treating the eye” (priority 2001, published 2003)
# Like-named read-outs stand apart in the source and are kept apart here.
# Columns and labels:
# [1] = target: T1, solubilized cytochrome c oxidase (COX) (Rattus norvegicus, UniProt P00406+P05503+P05505); assay: Activity of solubilized cytochrome c oxidase by oxygen consumption (Clarke electrode); assay type: biochemical; details: for IC50: read-out: IC50 (μM) in relation to COX
# T1 construct: Cytochrome c oxidase was purified from rat liver mitochondria of female Wistar rats; from tissue; host or cells: rat liver mitochondria (female Wistar rats)
# Experimental: Cytochrome c oxidase was purified from rat liver mitochondria of female Wistar rats as described by Frei et al. (Frei, B., Winterhalter, K. H., and Richter, C. (1985) J. Biol. Chem. 260, 7394-7401). The homogenization medium contained 210 mM mannitol, 70 mM saccharose, 10 mM tris-HCl (pH 7.4), 0.1 mM EDTA, and 0.5 mg/mL BSA. The heart mitochondria were purified using a similar method, a polytron homogenizer being used. The cytochrome c oxidase was purified according to the method described by Adez and Cascarano (Adez, I. Z., and Cascarano, J. (1977) J. Bioenerg. Biomemb. 9, 237-253). Cytochrome c oxidase solubilized using Triton X-100 was reconstituted in variously composed phospholipid vesicles of differing dimensions, a modified cholate dialysis method being used. (Niggli, V., Siegel, E., and Carafoli, E. (1982) J. Biol. Chem. 257, 2350-2356). 1 mL of a phospholipid suspension (10 mg/mL in 50 mM KCl, 10 mM HEPES-KOH (pH 7.0), 0.1 mM K^+-EDTA; buffer A) was solubilized in 0.2 mL of a 400 mM cholate solution. The purified cytochrome c oxidase (40 μg) was added to 0.4 mL of the cholate-phospholipid mixture. After an hour on ice, the sample was put into dialysis tubes and dialyzed in the cold against 1 L of buffer A (24 hours), three buffer replacements being performed. Cytochrome c oxidase from Paracoccus denitrificans was graciously provided by Dr. Bernd Ludwig, Biology Center of the University of Frankfurt am Main, Germany.
# The cytochrome c oxidase activity was determined by establishing the oxygen consumption. For this purpose, a Clarke electrode was used at 25° C. (Yellow Spring Instruments, Yellow Spring, Ohio), the measurement being performed under continuous stirring. Solubilized cytochrome c oxidase was suspended in 40 mM K^+-phosphate, 0.005 mM EDTA (pH 7.0), 0.7% Tween 20 containing 0.02 mM cytochrome c as a substrate and a mixture of ascorbate und tetramethyl-p-phenylenediamine (TMPD) (10 mM/1 mM). Reconstituted cytochrome c oxidase was measured with ascorbate/TPMD (10 mM/0.2 mM) in a medium containing 100 mM KCl, 0.01 M HEPES-KOH (pH 7.0) und 0.1 mM EDTA.
# The radiation with light was performed using a 70 watt lamp which was attached at 10 cm height over the electrode. The oxidation of lipids using peroxynitrite was achieved by suspending 20 mg DPG in 1 mL of 40 mM K^+-phosphate and 0.05 mM EDTA (pH 7.0) and mixing with 0.94 μmol peroxynitrite (original solution 94 mM in 0.1 N NaOH). Malondialdehyde was measured as an index for the lipid oxidation as already described (Klein, S. D., Walt, H., and Richter, C. (1997) Arch. Biochem. Biophys., 348, 313-319).
# The activity of the COX could be easily measured by registering the oxygen consumption of the enzyme in the presence of ascorbate and TPMD (tetramethyl-p-phenylene diamine) as an electron source to reduce cytochrome c.
# The experiment was performed in darkness (line a) and/or under the incidence of light (line b). 5 μg of catalase from beef liver with 500 μM of H2O2 was added at the positions marked with arrows. […] Two separate measurements are illustrated (lines a and b). At the positions marked by dashed arrows, 300 μg/mL of cardiolipin was added at t=210 seconds and t=950 seconds. At the position of the solid arrow, 5 μg of catalase from beef liver with 500 μM of H2O2 was added.
# The oxygen consumption of solubilized COX (2 μg/mL) was measured in the presence of various substances using a Clarke electrode (see materials and methods). […] TPP^+=tetraphenyl phosphonium ion; MPP^+=methylphenyl pyridinium ion.
# The oxygen consumption of solubilized COX (2 μg/mL) was measured in the presence of various substances using a Clarke electrode (see materials and methods).
# COX = target: T2, COX (Rattus norvegicus, UniProt P00406+P05503+P05505); assay: Binding of [3H]-A2E to COX by co-precipitation; details: 20 min
# T2 construct: Cytochrome c oxidase was purified from rat liver mitochondria of female Wistar rats; from tissue; host or cells: rat liver mitochondria (female Wistar rats)
# Experimental: (§1) The quantity of protein used in each case was approximately 50 pmol. After 20 minutes of incubation in the darkness or under radiation using light, 10% (final concentration) of trichloroacetic acid was added, the precipitate was collected on Millipore filters, and the dissolved filter was examined for radioactivity.
# To investigate the hypothesis of whether a molecular interaction occurs between COX and A2E, an acid precipitation of COX was performed after the addition of A2E and radiation with light, and/or after A2E exposure in darkness (see Table IV).
# (§2) [^3H]-A2E was added to solubilized COX or other proteins. After 20 minutes of incubation in darkness (setup was wrapped in aluminum foil) or under exposure to light, 10% trichloroacetic acid (final concentration) was added, the precipitate was collected on Millipore filters, and the filters, which were dissolved in solvent, were subsequently examined for radioactivity. CL=cardiolipin (diphosphatidylglycerol, DPC); Cyt. c=cytochrome c; BSA=bovine serum albumin.
# MCF-7 cells = assay: A2E-induced apoptosis of MCF-7 cells in culture; assay type: cell-based
# Text: These advantageous properties predestine the phospholipids according to the present invention for use as a medication for treating pathological conditions of the retina, particular for treating AMD and macular degeneration.
# COX from rat hearts = target: T3, COX from rat hearts (Rattus norvegicus, UniProt P00406+P05503+P05505); assay: Reconstituted COX from rat hearts, sensitivity to A2E; assay type: biochemical
# T3 construct: The heart mitochondria were purified using a similar method, a polytron homogenizer being used; from tissue; host or cells: rat heart mitochondria
# Experimental: (§3) Cytochrome c oxidase was purified from rat liver mitochondria of female Wistar rats as described by Frei et al. (Frei, B., Winterhalter, K. H., and Richter, C. (1985) J. Biol. Chem. 260, 7394-7401). The homogenization medium contained 210 mM mannitol, 70 mM saccharose, 10 mM tris-HCl (pH 7.4), 0.1 mM EDTA, and 0.5 mg/mL BSA. The heart mitochondria were purified using a similar method, a polytron homogenizer being used. The cytochrome c oxidase was purified according to the method described by Adez and Cascarano (Adez, I. Z., and Cascarano, J. (1977) J. Bioenerg. Biomemb. 9, 237-253). Cytochrome c oxidase solubilized using Triton X-100 was reconstituted in variously composed phospholipid vesicles of differing dimensions, a modified cholate dialysis method being used. (Niggli, V., Siegel, E., and Carafoli, E. (1982) J. Biol. Chem. 257, 2350-2356). […]
# (§4) The cytochrome c oxidase activity was determined by establishing the oxygen consumption. […] Reconstituted cytochrome c oxidase was measured with ascorbate/TPMD (10 mM/0.2 mM) in a medium containing 100 mM KCl, 0.01 M HEPES-KOH (pH 7.0) und 0.1 mM EDTA.
# (§5) A protective effect by negatively charged phospholipids was also observed when increasing quantities of cardiolipin (see above, a negatively charged phospholipid) were added to vesicles containing PC/PE (see Table III). […]
# Cyt.c = Cyt.c (Homo sapiens, UniProt P99999); assay: Binding of [3H]-A2E to cytochrome c by co-precipitation; details: 20 min
# Experimental: as §1, §2
# BSA = BSA (Bos taurus, UniProt P02769); assay: Binding of [3H]-A2E to BSA by co-precipitation; design: species or system bovine; details: 20 min
# Experimental: as §1, §2
# [2] = target: T4, COX from Paracoccus denitrificans (Paracoccus denitrificans, UniProt P08306+P98002); assay: Reconstituted COX from Paracoccus denitrificans, sensitivity to A2E; assay type: biochemical
# T4 construct: host or cells: gift from Dr. Bernd Ludwig, University of Frankfurt am Main
# Experimental: as §3, §4, §5
# [3] = target: T1, solubilized cytochrome c oxidase (COX); assay: Activity of solubilized cytochrome c oxidase by oxygen consumption (Clarke electrode); assay type: biochemical; details: read-out: IC50 (A2E concentration for 50% inhibition of COX)
# Myoglobin = target: T5, Myoglobin (Homo sapiens, UniProt P02144); assay: Binding of [3H]-A2E to myoglobin by co-precipitation; details: 20 min
# T5 sequence (P02144 1-154): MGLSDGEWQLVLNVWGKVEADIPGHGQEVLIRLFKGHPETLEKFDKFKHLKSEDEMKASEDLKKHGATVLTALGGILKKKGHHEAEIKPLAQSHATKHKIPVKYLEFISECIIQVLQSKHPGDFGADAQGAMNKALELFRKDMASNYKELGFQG
# Experimental: as §1, §2
# [4] = target: T6, reconstituted cytochrome c oxidase (COX) (Rattus norvegicus, UniProt P00406+P05503+P05505); assay: Activity of cytochrome c oxidase reconstituted in phospholipid vesicles, oxygen consumption in presence of A2E; assay type: biochemical; details: phospholipid used in the vesicles
# T6 construct: Cytochrome c oxidase was purified from rat liver mitochondria of female Wistar rats; from tissue; host or cells: rat liver mitochondria (female Wistar rats)
# T6 sequence (P00406 whole entry, other chains not shown): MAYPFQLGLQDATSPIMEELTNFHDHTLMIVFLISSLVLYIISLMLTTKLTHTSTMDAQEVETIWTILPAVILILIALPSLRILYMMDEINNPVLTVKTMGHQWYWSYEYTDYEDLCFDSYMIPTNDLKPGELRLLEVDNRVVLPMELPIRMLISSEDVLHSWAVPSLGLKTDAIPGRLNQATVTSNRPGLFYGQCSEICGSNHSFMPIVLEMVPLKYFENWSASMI
# T6 sequence (P05505 whole entry, other chains not shown): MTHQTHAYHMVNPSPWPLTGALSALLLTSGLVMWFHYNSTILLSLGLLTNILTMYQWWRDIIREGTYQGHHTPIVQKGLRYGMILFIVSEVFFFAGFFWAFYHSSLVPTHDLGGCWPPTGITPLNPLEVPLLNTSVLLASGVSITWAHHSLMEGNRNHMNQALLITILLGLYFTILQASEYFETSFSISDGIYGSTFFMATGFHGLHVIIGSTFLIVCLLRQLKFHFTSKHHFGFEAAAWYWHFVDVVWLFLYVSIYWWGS
# Experimental: Cytochrome c oxidase was purified from rat liver mitochondria of female Wistar rats as described by Frei et al. (Frei, B., Winterhalter, K. H., and Richter, C. (1985) J. Biol. Chem. 260, 7394-7401). The homogenization medium contained 210 mM mannitol, 70 mM saccharose, 10 mM tris-HCl (pH 7.4), 0.1 mM EDTA, and 0.5 mg/mL BSA. […] The cytochrome c oxidase was purified according to the method described by Adez and Cascarano (Adez, I. Z., and Cascarano, J. (1977) J. Bioenerg. Biomemb. 9, 237-253). Cytochrome c oxidase solubilized using Triton X-100 was reconstituted in variously composed phospholipid vesicles of differing dimensions, a modified cholate dialysis method being used. […] 1 mL of a phospholipid suspension (10 mg/mL in 50 mM KCl, 10 mM HEPES-KOH (pH 7.0), 0.1 mM K^+-EDTA; buffer A) was solubilized in 0.2 mL of a 400 mM cholate solution. The purified cytochrome c oxidase (40 μg) was added to 0.4 mL of the cholate-phospholipid mixture. After an hour on ice, the sample was put into dialysis tubes and dialyzed in the cold against 1 L of buffer A (24 hours), three buffer replacements being performed.
# The cytochrome c oxidase activity was determined by establishing the oxygen consumption. […] Reconstituted cytochrome c oxidase was measured with ascorbate/TPMD (10 mM/0.2 mM) in a medium containing 100 mM KCl, 0.01 M HEPES-KOH (pH 7.0) und 0.1 mM EDTA. […]
# T2 sequence (P00406 whole entry, other chains not shown): as the sequence (P00406 whole entry, other chains not shown) above
# T2 sequence (P05505 whole entry, other chains not shown): as the sequence (P05505 whole entry, other chains not shown) above
# T1 sequence (P00406 whole entry, other chains not shown): as the sequence (P00406 whole entry, other chains not shown) above
# T1 sequence (P05505 whole entry, other chains not shown): as the sequence (P05505 whole entry, other chains not shown) above
# Sequence of Cyt.c (P99999 whole entry): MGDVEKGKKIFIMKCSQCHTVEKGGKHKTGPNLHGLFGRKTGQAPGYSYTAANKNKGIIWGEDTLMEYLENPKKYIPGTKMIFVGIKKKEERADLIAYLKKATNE
# Sequence of BSA (P02769 25-607): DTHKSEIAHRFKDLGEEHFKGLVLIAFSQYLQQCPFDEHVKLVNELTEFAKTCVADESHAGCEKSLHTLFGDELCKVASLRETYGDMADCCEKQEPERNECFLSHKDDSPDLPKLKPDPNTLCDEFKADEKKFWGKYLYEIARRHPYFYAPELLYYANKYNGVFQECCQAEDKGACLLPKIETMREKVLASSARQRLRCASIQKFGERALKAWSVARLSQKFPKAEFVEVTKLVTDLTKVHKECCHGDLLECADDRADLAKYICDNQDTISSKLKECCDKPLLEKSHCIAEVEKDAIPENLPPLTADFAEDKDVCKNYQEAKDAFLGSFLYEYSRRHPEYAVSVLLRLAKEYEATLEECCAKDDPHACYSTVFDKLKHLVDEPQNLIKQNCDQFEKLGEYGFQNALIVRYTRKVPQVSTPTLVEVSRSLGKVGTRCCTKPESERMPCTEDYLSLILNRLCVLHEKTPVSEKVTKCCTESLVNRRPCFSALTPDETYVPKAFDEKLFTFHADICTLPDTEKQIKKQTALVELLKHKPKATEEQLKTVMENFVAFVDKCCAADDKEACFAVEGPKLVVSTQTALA
# T4 sequence (P08306 30-281): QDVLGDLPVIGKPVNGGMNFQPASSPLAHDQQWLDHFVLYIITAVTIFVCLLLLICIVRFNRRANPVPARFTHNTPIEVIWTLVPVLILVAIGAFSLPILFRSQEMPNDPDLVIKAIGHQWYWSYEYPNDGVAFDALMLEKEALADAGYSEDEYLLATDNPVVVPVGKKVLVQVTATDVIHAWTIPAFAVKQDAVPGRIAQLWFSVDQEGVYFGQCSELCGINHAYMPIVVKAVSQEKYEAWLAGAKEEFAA
# T4 sequence (P98002 whole entry): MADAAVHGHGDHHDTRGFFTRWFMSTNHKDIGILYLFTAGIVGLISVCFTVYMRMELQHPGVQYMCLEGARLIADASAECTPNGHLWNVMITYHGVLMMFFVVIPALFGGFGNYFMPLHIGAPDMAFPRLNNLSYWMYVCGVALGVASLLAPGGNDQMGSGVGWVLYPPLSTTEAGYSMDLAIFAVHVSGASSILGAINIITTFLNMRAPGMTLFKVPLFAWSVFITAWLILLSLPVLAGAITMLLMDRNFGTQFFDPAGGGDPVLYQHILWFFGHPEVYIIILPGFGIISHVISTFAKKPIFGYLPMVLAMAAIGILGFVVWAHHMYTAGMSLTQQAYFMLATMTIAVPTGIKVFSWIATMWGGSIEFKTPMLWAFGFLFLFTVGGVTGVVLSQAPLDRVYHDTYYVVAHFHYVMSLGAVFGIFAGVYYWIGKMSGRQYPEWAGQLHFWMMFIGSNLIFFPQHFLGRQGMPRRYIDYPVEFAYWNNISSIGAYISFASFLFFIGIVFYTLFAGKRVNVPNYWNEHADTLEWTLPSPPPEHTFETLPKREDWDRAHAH
# T3 sequence (P00406 whole entry, other chains not shown): as the sequence (P00406 whole entry, other chains not shown) above
# T3 sequence (P05505 whole entry, other chains not shown): as the sequence (P05505 whole entry, other chains not shown) above
molecule,measurement,setting,value
"1,3 diphosphatidylglycerol [CL]",Protective effect on COX against A2E after (pre)treatment with peroxynitrite,[1]; CL oxidised with peroxynitrite,loss of the protective properties
same,Prevention of A2E binding to COX,COX; co-precipitation,almost completely prevented
same,Cells survived,"MCF-7 cells; 60 μM A2E + CL 500 μg/mL, 5 days",95%
same,Protection from A2E-induced apoptosis,MCF-7 cells; CL 500 μg/mL,significant protective effect
"CC1=C(/C=C/C(C)=C/C=C/C(C)=C/c2cc(/C=C/C=C(C)/C=C/C3=C(C)CCCC3(C)C)cc[n+]2CCO)C(C)(C)CCC1 [A2E, N-retinyl-N-retinylidene ethanolamine]",Sensitivity of enzyme to A2E,COX from rat hearts,sensitive
same,Molecules A2E/molecules protein,Cyt.c; darkness,0.0 (n = 3)
same,Molecules A2E/molecules protein,Cyt.c; exposure to light,0.0 (n = 3)
same,Molecules A2E/molecules protein,BSA; darkness,1.6 +/− 0.5 (n = 3)
same,Molecules A2E/molecules protein,BSA; exposure to light,1.6 +/− 0.5 (n = 3)
same,% COX inhibition,"[1]; solubilized COX 2 μg/mL, A2E always 20 μM, CL 200 μg/mL, RR 10 μM, La3+ 200 μM where added",60%
same,IC50,[1]; solubilized COX 2 μg/mL,7 µM
same,Sensitivity of enzyme to A2E,[2],sensitive
same,Molecules A2E/molecules protein,"COX; COX + CL + Cyt.c, darkness",0.7 +/− 0.9 (n = 3)
same,Molecules A2E/molecules protein,"COX; COX + CL + Cyt.c, exposure to light",3.8 +/− 2.3 (n = 4)
same,Molecules A2E/molecules protein,"COX; COX + CL, exposure to light",2.7 +/− 3.6 (n = 4)
same,Cells died off,"MCF-7 cells; 60 μM A2E, 5 days",99%
same,Induction of apoptosis,"MCF-7 cells; A2E 10, 30, 60 μM, 3 and/or 5 days",led to the cells becoming apoptotic
same,IC50,[3]; solubilized COX 1 μg/mL,3 µM
same,IC50,[3]; solubilized COX 4 μg/mL,20 µM
same,Molecules A2E/molecules protein,Myoglobin; darkness,0.0 (n = 2)
same,Molecules A2E/molecules protein,Myoglobin; exposure to light,0.0 (n = 2)
Cc1cc(N)c2ccccc2[n+]1CCCCCCCCCC[n+]1c(C)cc(N)c2ccccc21 [Dequalinium],IC50,[1]; solubilized COX 2 μg/mL,40 µM
"C[n+]1ccc(-c2ccccc2)cc1 [MPP^+, methylphenyl pyridinium ion]",IC50 (μM) in relation to COX,[1]; solubilized COX 2 μg/mL,No inhibition
CC1=C(/C=C/C(C)=C/C=C/C(C)=C/C=O)C(C)(C)CCC1 [Retinal],IC50,[1]; solubilized COX 2 μg/mL,200 µM
CCCCCCCCCCCCCCCCCCN [Stearylamine],IC50 (μM) in relation to COX,[1]; solubilized COX 2 μg/mL,No inhibition
"c1ccc([P+](c2ccccc2)(c2ccccc2)c2ccccc2)cc1 [TPP^+, tetraphenyl phosphonium ion]",IC50 (μM) in relation to COX,[1]; solubilized COX 2 μg/mL,No inhibition
phosphatidylinositol [PI],Protection of reconstituted COX from inhibition by A2E,[4],pronounced protective effect
